Test results: US20030148970A1, “Methods for specifically inhibiting histone deacetylase-4” (priority 2001, published 2003)

What was measured:
human HDAC-1 = molecular target: T1, human HDAC-1 (Homo sapiens, UniProt Q13547); experiment: histone deacetylase enzyme assay, HDAC-1; type: biochemical
T1 construct: made in house; host or cells: insect cells (baculovirus expression system)
Description: (§1) The other HDAC isotypes, HDAC-3 and HDAC-4, were purified directly on an anti-Flag affinity column.
(§2) For the deacetylase assay, 20,000 cpm of an [^3H]-metabolically-labeled acetylated histone was used as a substrate. Histones were incubated with cloned recombinant human HDAC enzymes at 37° C. […] All assay conditions were pre-determined to be certain that each reaction was linear. Reactions were stopped by adding acetic acid (0.04 M final concentration) and HCl (250 mM, final concentration). The mixture was extracted with ethyl acetate, and the released [3H]-acetic acid was quantified by liquid scintillation counting. For the inhibition studies, HDAC enzyme was preincubated with test compounds for 30 minutes at 4° C. prior to the start of the enzymatic assay. IC50 values for HDAC enzyme inhibitors were identified with dose response curves for each individual compound and, thereby, obtaining a value for the concentration of inhibitor that produced fifty percent of the maximal inhibition.

HDAC 2 = HDAC 2 (Homo sapiens, UniProt Q92769); experiment: histone deacetylase enzyme assay, HDAC 2; type: biochemical
HDAC 2, sequence (Q92769 whole entry): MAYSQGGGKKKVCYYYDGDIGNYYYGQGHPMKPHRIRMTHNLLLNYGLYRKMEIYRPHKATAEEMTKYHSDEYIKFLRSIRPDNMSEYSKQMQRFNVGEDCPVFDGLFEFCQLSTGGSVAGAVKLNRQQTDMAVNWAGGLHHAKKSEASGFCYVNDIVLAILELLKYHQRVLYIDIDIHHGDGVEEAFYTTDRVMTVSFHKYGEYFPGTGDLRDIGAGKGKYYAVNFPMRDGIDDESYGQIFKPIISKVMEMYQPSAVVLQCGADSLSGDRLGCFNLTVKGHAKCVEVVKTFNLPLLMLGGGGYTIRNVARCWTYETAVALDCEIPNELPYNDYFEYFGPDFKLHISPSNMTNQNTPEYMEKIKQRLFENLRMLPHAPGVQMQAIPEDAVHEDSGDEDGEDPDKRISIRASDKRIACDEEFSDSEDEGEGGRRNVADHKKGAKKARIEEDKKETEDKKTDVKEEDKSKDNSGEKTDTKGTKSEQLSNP
Description: as §2

cell cycle arrest = type: cell-based
[1] = tested on: acetylated histone H-4 in T24 human bladder cancer cells; experiment: inhibition of HDAC activity in whole cells (acetylated histone H-4 Western); type: cell-based; settings: 16 hours
Description: T24 human bladder cancer cells (ATCC, Manassas, Va.) growing in culture were incubated with test compounds for 16 hours. Histones were extracted from the cells by standard procedures (see e.g. Yoshida et al., supra) after the culture period. Twenty μg total core histone protein was loaded onto SDS/PAGE and transferred to nitrocellulose membranes, which were then reacted with polyclonal antibody specific for acetylated histone H-4 (Upstate Biotech Inc., Lake Placid, […].). Horse Radish Peroxidase conjugated secondary antibody was used at a dilution of 1:5000 to detect primary antibody binding. The secondary antibody binding was visualized by use of the Enhanced chemiluminescence (ECL) detection kit (Amersham-Pharmacia Biotech., Inc., Piscataway, N.J.). After exposure to film, acetylated H-4 signal was quantitated by densitometry.

human HDAC-4 = molecular target: T2, human HDAC-4 (Homo sapiens, UniProt P56524); experiment: histone deacetylase enzyme assay, HDAC-4; type: biochemical
T2 construct: Flag; made in house; host or cells: human embryonic kidney 293 cells (calcium phosphate transfection)
T2 sequence (P56524 whole entry): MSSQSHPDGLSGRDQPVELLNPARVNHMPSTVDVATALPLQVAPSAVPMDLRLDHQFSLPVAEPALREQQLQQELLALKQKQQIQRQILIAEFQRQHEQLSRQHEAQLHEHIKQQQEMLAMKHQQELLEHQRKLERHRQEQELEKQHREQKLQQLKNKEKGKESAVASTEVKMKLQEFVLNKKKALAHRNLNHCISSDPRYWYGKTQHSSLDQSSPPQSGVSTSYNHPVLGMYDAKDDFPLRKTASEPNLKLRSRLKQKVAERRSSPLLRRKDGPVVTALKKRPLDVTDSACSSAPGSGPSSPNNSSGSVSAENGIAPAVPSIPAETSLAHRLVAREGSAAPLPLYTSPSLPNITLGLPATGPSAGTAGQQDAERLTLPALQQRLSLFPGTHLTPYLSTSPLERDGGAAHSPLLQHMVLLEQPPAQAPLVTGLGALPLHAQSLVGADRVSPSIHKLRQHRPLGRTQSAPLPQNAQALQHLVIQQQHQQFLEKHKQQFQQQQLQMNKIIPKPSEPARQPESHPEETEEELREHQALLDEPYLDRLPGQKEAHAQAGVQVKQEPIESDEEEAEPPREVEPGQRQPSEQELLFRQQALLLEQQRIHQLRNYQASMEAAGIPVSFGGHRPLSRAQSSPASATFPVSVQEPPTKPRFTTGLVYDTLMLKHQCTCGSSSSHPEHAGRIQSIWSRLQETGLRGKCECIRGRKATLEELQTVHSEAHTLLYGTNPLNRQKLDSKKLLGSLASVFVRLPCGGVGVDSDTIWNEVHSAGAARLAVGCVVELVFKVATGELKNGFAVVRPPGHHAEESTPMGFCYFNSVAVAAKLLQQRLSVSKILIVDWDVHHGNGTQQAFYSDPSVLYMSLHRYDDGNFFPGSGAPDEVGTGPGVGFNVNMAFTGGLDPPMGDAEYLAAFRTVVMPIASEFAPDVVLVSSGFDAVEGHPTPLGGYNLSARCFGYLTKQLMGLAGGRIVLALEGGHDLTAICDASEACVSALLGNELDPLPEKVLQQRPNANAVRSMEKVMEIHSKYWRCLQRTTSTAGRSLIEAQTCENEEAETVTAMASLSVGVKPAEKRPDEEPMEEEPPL
Description: Flag-tagged human HDAC-4 enzyme was produced in human embronic kidney 293 cells after transformation by the calcium phosphate precipitation method. Briefly, 293 cells were cultured in Dulbecco's Modified Eagle Medium (DMEM) containing 10% fetal bovine serum and antibiotics. Plasmid DNA encoding Flag-tagged human HDAC-4 was precipitated by ethanol and resuspend in sterile water. DNA-calcium precipitates, formed by mixing DNA, calcium choloride and 2×HEPES-buffered saline solution, were left on 293 cells for 12-16 hours. Cells were return to serum-contained DMEM medium and harvested at 48 hour post transfection for purification of Flag-tagged HDAC-4 enzyme.
as §1, §2

human HDAC-6 = molecular target: T3, human HDAC-6 (Homo sapiens, UniProt Q9UBN7); experiment: histone deacetylase enzyme assay, HDAC-6; type: biochemical
T3 construct: made in house; host or cells: insect cells (baculovirus expression system)
T3 sequence (Q9UBN7 1-1215): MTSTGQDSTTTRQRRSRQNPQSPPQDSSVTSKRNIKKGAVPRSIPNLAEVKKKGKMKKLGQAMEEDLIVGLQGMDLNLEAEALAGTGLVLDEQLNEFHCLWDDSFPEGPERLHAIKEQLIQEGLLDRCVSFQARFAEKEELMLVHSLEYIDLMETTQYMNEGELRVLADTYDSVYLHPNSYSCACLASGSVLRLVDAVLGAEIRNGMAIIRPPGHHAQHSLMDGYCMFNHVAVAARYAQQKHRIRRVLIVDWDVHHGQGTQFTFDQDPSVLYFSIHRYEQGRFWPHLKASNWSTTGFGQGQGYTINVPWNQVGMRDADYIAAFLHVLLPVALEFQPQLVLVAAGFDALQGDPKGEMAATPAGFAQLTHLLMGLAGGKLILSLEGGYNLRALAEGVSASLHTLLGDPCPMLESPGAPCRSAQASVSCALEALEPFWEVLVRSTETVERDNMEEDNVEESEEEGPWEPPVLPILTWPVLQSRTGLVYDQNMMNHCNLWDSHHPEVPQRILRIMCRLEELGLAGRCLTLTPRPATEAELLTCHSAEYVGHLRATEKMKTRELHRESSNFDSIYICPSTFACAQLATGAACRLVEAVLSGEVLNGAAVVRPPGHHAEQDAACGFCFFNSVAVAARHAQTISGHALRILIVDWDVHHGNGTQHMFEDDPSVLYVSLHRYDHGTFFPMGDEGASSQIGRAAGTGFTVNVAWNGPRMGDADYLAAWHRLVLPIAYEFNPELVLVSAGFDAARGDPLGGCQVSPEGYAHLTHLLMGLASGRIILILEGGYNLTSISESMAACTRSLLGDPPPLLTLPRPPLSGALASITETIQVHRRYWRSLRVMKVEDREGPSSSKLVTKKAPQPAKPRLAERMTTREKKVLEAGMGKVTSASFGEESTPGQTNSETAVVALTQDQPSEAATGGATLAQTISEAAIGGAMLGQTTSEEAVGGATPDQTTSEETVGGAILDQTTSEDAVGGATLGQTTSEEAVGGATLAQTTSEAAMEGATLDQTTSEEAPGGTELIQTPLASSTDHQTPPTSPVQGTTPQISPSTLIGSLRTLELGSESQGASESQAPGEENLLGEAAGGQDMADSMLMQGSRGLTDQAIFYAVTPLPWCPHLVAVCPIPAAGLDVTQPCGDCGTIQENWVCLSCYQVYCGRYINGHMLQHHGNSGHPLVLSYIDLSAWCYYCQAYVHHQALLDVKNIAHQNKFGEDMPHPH
Description: as §1, §2

[2] = tested on: human colon cancer HCT116 cells; experiment: MTT assay of cell proliferation and cytotoxicity; type: cell-based; settings: HCT-116, 48 hours
Description: Four thousand five hundred (4,500) human colon cancer HCT116 cells (ATCC, Manassas, Va. were used in an MTT (3-[4,5-dimethylthiazol-2-yl]-2,5 diphenyl tetrazolium bromide) assay to quantitatively determine cell proliferation and cytotoxicity. Typically, HCT116 cells were plated into each well of the 96-well tissue culture plate and left overnight to attach to the plate. Compounds at various concentrations (1 uM, 5 uM and 25 uM, in DMSO) were added in triplicate into the culture media (final DMSO concentration 1%) and incubated for 48 hours. MTT solution (obtained from Sigma as powder) was added and incubated with the cells for 4 hours at 37° C. in incubator with 5% CO2. During the incubation, viable cells convert MTT to a water-insoluble formazan dye. Solubilizing buffer (50% N,N-dimethylformamide, 20% SDS, pH 4.7) was added to cells and incubate for overnight at 37C in incubator with 5% CO2. Solubilized dye was quantitated by colorimetric reading at […] using a reference of […].

p21 = p21 induction by small molecules; type: cell-based
human HDAC-3 = molecular target: T4, human HDAC-3 (Homo sapiens, UniProt O15379); experiment: histone deacetylase enzyme assay, HDAC-3; type: biochemical
T4 construct: made in house; host or cells: insect cells (baculovirus expression system)
T4 sequence (O15379 whole entry): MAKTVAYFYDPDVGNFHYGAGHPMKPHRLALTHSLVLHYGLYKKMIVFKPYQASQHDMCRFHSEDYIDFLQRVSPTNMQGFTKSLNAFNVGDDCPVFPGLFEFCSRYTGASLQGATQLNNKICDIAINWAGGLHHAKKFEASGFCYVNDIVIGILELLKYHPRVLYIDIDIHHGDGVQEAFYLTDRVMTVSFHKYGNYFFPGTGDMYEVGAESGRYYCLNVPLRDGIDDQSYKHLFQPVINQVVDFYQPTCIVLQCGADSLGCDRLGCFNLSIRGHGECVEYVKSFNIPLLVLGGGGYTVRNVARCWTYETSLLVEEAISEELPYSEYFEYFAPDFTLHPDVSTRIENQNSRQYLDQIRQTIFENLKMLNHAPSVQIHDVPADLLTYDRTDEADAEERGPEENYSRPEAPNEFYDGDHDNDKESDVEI
Description: as §1, §2

[3] = tested on: human colon cancer cells (HCT116); experiment: tumor growth in a mouse model, colon; type: in vivo, BALB/c nude mice; settings: 40 mg/kg body weight/day, i p; vs vehicle-treated mice
Description: Female BALB/c nude mice were obtained from Charles River Laboratories (Charles River, NY) and used at age 8-10 weeks. Human prostate tumor cells (DU145, 2×10^6) or human colon cancer cells (HCT116; 2×10^6) or small lung core A549 2×10^6 were injected subcutaneously in the animal's flank and allowed to form solid tumors. Tumor fragments were serially passaged a minimum of three times, then approximately 30 mg tumor fragments were implanted subcutaneously through a small surgical incision under general anaesthesia. Small molecule inhibitor administration by intraperotineal or oral administration was initiated when the tumors reached a volume of 100 mm^3. For intraperotineal administration, small molecule inhibitors of HDAC (40-50 mg/kg body weight/day) were dissolved in 100% DMSO and administered daily intraperitoneally by injection. For oral administration, small molecule inhibitors of HDAC (40-50 mg/kg body weight/days) were dissolved in a solution containing 65% polyethylene glycol 400 (PEG 400 (Sigma-Aldridge, Mississauga, Ontario, Calif., Catalogue No. P-3265), 5% ethanol, and 30% water. Tumor volumes were monitored twice weekly up to 20 days. Each experimental group contained at least 6-8 animals. Percentage inhibition was calculated using volume of tumor from vehicle-treated mice as controls.

T1 sequence (Q13547 whole entry): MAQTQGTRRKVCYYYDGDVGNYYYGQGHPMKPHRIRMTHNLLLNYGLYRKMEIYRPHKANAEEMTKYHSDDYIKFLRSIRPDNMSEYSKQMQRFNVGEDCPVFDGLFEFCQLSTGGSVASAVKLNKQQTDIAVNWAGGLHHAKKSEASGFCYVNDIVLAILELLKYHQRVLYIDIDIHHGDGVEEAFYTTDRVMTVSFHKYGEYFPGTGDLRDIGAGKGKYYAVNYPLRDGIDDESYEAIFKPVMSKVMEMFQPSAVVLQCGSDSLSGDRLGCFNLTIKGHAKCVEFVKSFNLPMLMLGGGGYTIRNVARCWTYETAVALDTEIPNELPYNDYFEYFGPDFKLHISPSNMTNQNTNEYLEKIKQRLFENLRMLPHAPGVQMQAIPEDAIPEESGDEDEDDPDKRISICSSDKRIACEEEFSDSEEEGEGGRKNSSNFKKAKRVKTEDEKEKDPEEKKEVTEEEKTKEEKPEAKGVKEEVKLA

IC50 (HDAC 2) [µM]	SMILES	IC50 (human HDAC-1) [µM]	cell cycle arrest EC (cell cycle arrest) [µM]	effective concentration for histone H4 acetylation [1] [µM]	IC50 (human HDAC-4) [µM]	IC50 (human HDAC-6) [µM]	IC50 [2] [nM]	p21 induction (p21) [µM]	IC50 (human HDAC-3) [µM]	% inh. of tumor formation in vivo, colon [3]
25	CC(/C=C/C(=O)Nc1ccccc1N)=C\C(C)C(=O)c1ccc(N(C)C)cc1 (stereo not drawn) [MG 242 9]	3	2	1	23	> 50	1000	3	21	–
–	Cc1ccc(S(=O)(=O)Nc2ccc(/C=C/C(=O)Nc3ccccc3N)cc2)cc1 [MG 376 3]	3	2	5	28	> 50	4000	2	45	55 (40, i p) %
